In US20040024024A1, “Aromatic sulfone hydroxamates and their use as protease inhibitors” (priority 2001, published 2004) one finds IC50 data, which are given here for 23 compounds.

Each structure is given as a SMILES string. pIC50: −log10 of the molar value.

Assay in all cases: In vitro MMP inhibition, IC50 determination (fluorogenic substrate I)
Assay type in all cases: biochemical
Common to all, as to conditions: value outside parentheses (Ki in parenthesis)

For one experiment, the target named is T1, Human recombinant MMP-14 (Homo sapiens, UniProt P50281).
T1 construct: The catalytic domain enzyme was expressed in E. coli inclusion bodies, solubilized in urea; made in house
The essentials:
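IC50 came from reduced fluorescence (ex 328 nm, em 415 nm) as inhibitor concentration rose, with 4 μM substrate I cleaved at Gly-Leu. Room-temperature incubation in pH 7.5 Tris buffer with 10 mM CaCl2; the E. coli-expressed, refolded MMP-14 catalytic domain was activated with trypsin or APMA.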

The target of the next experiment is T2, Human recombinant MMP-13 (Homo sapiens, UniProt P45452).
T2 construct: made in house; host or cells: baculovirus / insect cells
The essentials: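 Fluorescence at 415 nm (excitation 328 nm) reports Gly-Leu cleavage of 4 μM quenched methoxycoumarin peptide substrate I. Human recombinant MMP-13, activated by trypsin or APMA, was incubated at room temperature with varied inhibitor concentrations in pH 7.5 Tris/NaCl/CaCl2 buffer; IC50 derived from reduced fluorescence.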

A further experiment deals with T3, Human recombinant MMP-1 (Homo sapiens, UniProt P03956).
T3 construct: made in house; host or cells: MMP-1-transfected HT-1080 cells (spent media)
T3 sequence (P03956 100-469): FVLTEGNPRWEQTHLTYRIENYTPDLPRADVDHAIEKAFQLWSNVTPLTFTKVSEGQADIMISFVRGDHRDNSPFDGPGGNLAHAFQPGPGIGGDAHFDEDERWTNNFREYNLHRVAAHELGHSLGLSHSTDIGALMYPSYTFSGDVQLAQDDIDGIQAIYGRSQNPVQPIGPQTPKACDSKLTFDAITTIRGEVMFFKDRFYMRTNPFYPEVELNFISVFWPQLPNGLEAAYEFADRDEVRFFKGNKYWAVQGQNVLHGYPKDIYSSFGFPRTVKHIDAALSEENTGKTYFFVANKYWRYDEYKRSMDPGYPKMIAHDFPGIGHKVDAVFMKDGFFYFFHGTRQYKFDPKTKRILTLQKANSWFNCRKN
The method, boiled down: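 Inhibitor dilutions were made in 100 mM Tris-HCl/100 mM NaCl/10 mM CaCl2 buffer, pH 7.5, and incubated at room temperature with activated proenzyme (from transfected HT-1080 media; APMA or trypsin) and 4 μM quenched methoxycoumarin peptide substrate. Loss of 415 nm fluorescence (328 nm excitation) against concentration gave IC50.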

Another experiment deals with T4, Human recombinant MMP-2 (Homo sapiens, UniProt P08253).
T4 construct: made in house; host or cells: MMP-2-transfected p2AHT2 cells
T4 sequence (P08253 110-660): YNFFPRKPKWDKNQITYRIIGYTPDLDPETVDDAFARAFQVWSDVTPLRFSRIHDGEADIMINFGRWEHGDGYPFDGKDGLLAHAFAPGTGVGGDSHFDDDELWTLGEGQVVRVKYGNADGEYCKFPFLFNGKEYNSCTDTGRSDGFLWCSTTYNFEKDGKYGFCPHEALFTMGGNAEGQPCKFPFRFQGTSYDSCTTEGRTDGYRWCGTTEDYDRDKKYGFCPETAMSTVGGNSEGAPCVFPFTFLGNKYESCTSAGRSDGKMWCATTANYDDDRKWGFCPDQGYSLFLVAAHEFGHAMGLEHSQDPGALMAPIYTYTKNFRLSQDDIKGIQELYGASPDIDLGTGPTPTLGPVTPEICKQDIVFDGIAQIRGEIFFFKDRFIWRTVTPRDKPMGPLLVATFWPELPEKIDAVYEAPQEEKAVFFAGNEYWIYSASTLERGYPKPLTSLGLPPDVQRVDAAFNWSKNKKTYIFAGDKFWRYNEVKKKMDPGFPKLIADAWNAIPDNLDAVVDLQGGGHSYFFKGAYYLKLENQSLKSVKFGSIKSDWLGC
The essentials:
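IC50 was derived from the concentration-dependent fall in fluorescence (ex 328, em 415 nm) on Gly-Leu cleavage of 4 μM MCA/Dpa-quenched substrate I. Assays ran at room temperature in pH 7.5 Tris/NaCl/CaCl2/Brij buffer with MMP-2 activated by trypsin or APMA; inhibitors were diluted from 1% DMSO stocks.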

Another experiment deals with T5, Human recombinant MMP-9 (Homo sapiens, UniProt P14780).
T5 construct: made in house; host or cells: MMP-9-transfected HT1080 cells (spent media)
T5 sequence (P14780 107-707 limits assumed): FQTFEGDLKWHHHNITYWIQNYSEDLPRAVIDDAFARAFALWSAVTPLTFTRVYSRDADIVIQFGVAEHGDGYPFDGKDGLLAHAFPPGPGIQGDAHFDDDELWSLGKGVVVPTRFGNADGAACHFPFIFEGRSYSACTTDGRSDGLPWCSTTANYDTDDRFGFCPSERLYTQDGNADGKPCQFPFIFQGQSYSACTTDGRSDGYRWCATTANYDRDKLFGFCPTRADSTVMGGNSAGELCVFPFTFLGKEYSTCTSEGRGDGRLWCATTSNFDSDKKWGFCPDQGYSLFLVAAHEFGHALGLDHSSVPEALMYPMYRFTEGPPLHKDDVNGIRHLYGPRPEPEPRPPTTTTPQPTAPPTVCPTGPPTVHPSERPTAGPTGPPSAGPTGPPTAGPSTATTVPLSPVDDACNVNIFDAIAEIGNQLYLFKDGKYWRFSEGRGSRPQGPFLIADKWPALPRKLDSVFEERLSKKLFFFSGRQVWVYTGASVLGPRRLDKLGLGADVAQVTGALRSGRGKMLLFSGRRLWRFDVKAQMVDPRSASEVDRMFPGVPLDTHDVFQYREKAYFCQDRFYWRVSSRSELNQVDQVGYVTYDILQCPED
The method, boiled down:
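Reduction in fluorescence (328 nm excitation, 415 nm emission) from cleavage of 4 μM quenched peptide substrate I, measured at room temperature against inhibitor concentration, gave IC50. Enzyme: trypsin- or APMA-activated MMP-9 purified from transfected HT1080 medium; buffer 100 mM Tris, 100 mM NaCl, 10 mM CaCl2, pH 7.5.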

The pIC50 is the IC50 on a negative log10 scale, so that one unit is a factor of ten.

Consider `CCCCCc1ccc(-c2nnc(CCCOc3ccc(S(=O)(=O)C4(C(=O)NO)CCOCC4)cc3)o2)cc1` [Example 316], for which the pIC50 is under 5.00 on Human recombinant MMP-14; 7.87 on Human recombinant MMP-13; 5.57 at Human recombinant MMP-1; 5.55 at Human recombinant MMP-2; 6.16 on Human recombinant MMP-9.

Regarding `Cc1oc(CCCOc2ccc(S(=O)(=O)C3(C(=O)NO)CCOCC3)cc2)nc1-c1ccccc1` [Example 317], the pIC50 on Human recombinant MMP-14 was under 5.00; on Human recombinant MMP-13 it was 8.51; on Human recombinant MMP-1, under 5.00; at Human recombinant MMP-2, 6.92; on Human recombinant MMP-9, 6.61.

With `O=C(NO)C1(S(=O)(=O)c2ccc(OCCCOc3ccc(C(F)(F)F)cc3)cc2)CCN(C2CC2)CC1` [Example 319], the pIC50 on Human recombinant MMP-14 is 5.37; on Human recombinant MMP-13 it was 9.00; on Human recombinant MMP-1 it was under 5.00; on Human recombinant MMP-2, 8.24; at Human recombinant MMP-9, 6.59.

For `O=C(NO)C1(S(=O)(=O)c2ccc(OCCCNc3nc4ccccc4o3)cc2)CCOCC1` [Example 321], the pIC50 on Human recombinant MMP-14 is under 5.00; on Human recombinant MMP-13, 8.43; on Human recombinant MMP-1 it was under 5.00; on Human recombinant MMP-2, 5.77; at Human recombinant MMP-9, 6.20.

`O=C(CCCCOc1ccc(S(=O)(=O)C2(C(=O)NO)CCOCC2)cc1)c1cccs1` [Example 324]: the pIC50 at Human recombinant MMP-14 was 5.10; on Human recombinant MMP-13 it was 9.30; on Human recombinant MMP-1, 5.52; on Human recombinant MMP-2, 8.38; at Human recombinant MMP-9, 6.30.

Consider `O=C(CCCCOc1ccc(S(=O)(=O)C2(C(=O)NO)CCOCC2)cc1)c1cccc(-c2ccccc2)c1` [Example 325], for which the pIC50 at Human recombinant MMP-14 was under 5.00; on Human recombinant MMP-13 it was 9.30; at Human recombinant MMP-1 it was under 5.00; on Human recombinant MMP-2, 7.96; on Human recombinant MMP-9, 5.39.

Take `O=C(CCCCOc1ccc(S(=O)(=O)C2(C(=O)NO)CCOCC2)cc1)c1ccccc1` [Example 326]: the pIC50 is 5.08 on Human recombinant MMP-14; 9.52 at Human recombinant MMP-13; under 5.00 on Human recombinant MMP-1; 8.13 on Human recombinant MMP-2; 6.58 on Human recombinant MMP-9.

With `CC(C)(C)c1ccc(C(=O)CCCCOc2ccc(S(=O)(=O)C3(C(=O)NO)CCOCC3)cc2)cc1` [Example 327], the pIC50 at Human recombinant MMP-14 is under 5.00; on Human recombinant MMP-13, 9.05; at Human recombinant MMP-1, under 5.00; at Human recombinant MMP-2, 7.29; on Human recombinant MMP-9, 5.28.

Consider `CCOc1ccc2nc(SCCOc3ccc(S(=O)(=O)C4(C(=O)NO)CCOCC4)cc3)sc2c1` [Example 330], for which the pIC50 on Human recombinant MMP-14 is 6.23; at Human recombinant MMP-13, 7.80; on Human recombinant MMP-1, under 5.00; at Human recombinant MMP-2, 6.58; on Human recombinant MMP-9, 6.67.

In the case of `O=C(NO)C1(S(=O)(=O)c2ccc(OCCCS(=O)(=O)N3CCc4ccccc4C3)cc2)CCOCC1` [Example 332], the pIC50 at Human recombinant MMP-14 is under 5.00; at Human recombinant MMP-13, 8.59; on Human recombinant MMP-1 it was 5.61; at Human recombinant MMP-2 it was 8.44; on Human recombinant MMP-9, 6.88.

Turning to `O=C1c2cc(Cl)c(Cl)cc2C(=O)N1CCCOc1ccc(S(=O)(=O)C2(C(=O)NO)CCOCC2)cc1` [Example 333], the pIC50 was under 5.00 at Human recombinant MMP-14; 8.74 on Human recombinant MMP-13; under 5.00 on Human recombinant MMP-1; 6.18 on Human recombinant MMP-2; 5.49 at Human recombinant MMP-9.

On to `O=C(NO)C1(S(=O)(=O)c2ccc(OCCCCN3CCc4ccccc4C3)cc2)CCOCC1` [Example 334], for which the pIC50 at Human recombinant MMP-14 was 5.54; at Human recombinant MMP-13 it was 8.29; at Human recombinant MMP-1 it was under 5.00; at Human recombinant MMP-2 it was 7.79; at Human recombinant MMP-9, 6.06.

Regarding `COc1cc2c(cc1OC)C(C)N(C(=O)OCCCCOc1ccc(S(=O)(=O)C3(C(=O)NO)CCOCC3)cc1)CC2` (stereo not shown) [Example 335], the pIC50 on Human recombinant MMP-14 was under 5.00; at Human recombinant MMP-13, 8.19; at Human recombinant MMP-1, under 5.00; at Human recombinant MMP-2, 8.64; on Human recombinant MMP-9 it was 6.76.

On to `Cc1cc(C(=O)CCCCOc2ccc(S(=O)(=O)C3(C(=O)NO)CCOCC3)cc2)ccc1OC(C)C` [Example 340], for which the pIC50 at Human recombinant MMP-14 is under 5.00; on Human recombinant MMP-13, 8.72; at Human recombinant MMP-1 it was under 5.00; at Human recombinant MMP-2 it was 6.60; on Human recombinant MMP-9 it was 5.25.

Consider `O=C(NO)C1(S(=O)(=O)c2ccc(OCCSc3nc4ccccc4s3)cc2)CCOCC1` [Example 341], for which the pIC50 on Human recombinant MMP-14 was 5.19; on Human recombinant MMP-13, 9.30; at Human recombinant MMP-1 it was under 5.00; at Human recombinant MMP-2, 7.77; on Human recombinant MMP-9, 5.95.

Turning to `O=C(CCCCOc1ccc(S(=O)(=O)C2(C(=O)NO)CCOCC2)cc1)c1cccc2ccccc12` [Example 342], the pIC50 on Human recombinant MMP-14 was under 5.00; on Human recombinant MMP-13 it was 8.70; on Human recombinant MMP-1 it was under 5.00; on Human recombinant MMP-2, 7.39; at Human recombinant MMP-9, 5.66.

On to `COc1ccc(-c2nnc(CCCCOc3ccc(S(=O)(=O)C4(C(=O)NO)CCOCC4)cc3)o2)cc1` [Example 346], for which the pIC50 at Human recombinant MMP-14 is under 5.00; at Human recombinant MMP-13, 9.05; on Human recombinant MMP-1, under 5.00; at Human recombinant MMP-2 it was 8.59; at Human recombinant MMP-9, 5.70.

With `O=C(NO)C1(S(=O)(=O)c2ccc(OCCCCS(=O)(=O)C3CCCCC3)cc2)CCOCC1` [Example 348], the pIC50 on Human recombinant MMP-14 is under 5.00; at Human recombinant MMP-13, 8.36; on Human recombinant MMP-1 it was under 5.00; on Human recombinant MMP-2, 7.21; at Human recombinant MMP-9, under 5.00.

For `O=C(CCCOc1ccc(S(=O)(=O)C2(C(=O)NO)CCOCC2)cc1)Nc1ccccc1O` [Example 350], the pIC50 at Human recombinant MMP-14 is 5.57; at Human recombinant MMP-13 it was 9.30; on Human recombinant MMP-1, 5.48; on Human recombinant MMP-2, 8.59; on Human recombinant MMP-9, 6.57.

As for `COc1ccc(C(=O)CCCCOc2ccc(S(=O)(=O)C3(C(=O)NO)CCOCC3)cc2)c(OC)c1` [Example 351], the pIC50 at Human recombinant MMP-14 was under 5.00; on Human recombinant MMP-13, 9.00; at Human recombinant MMP-1, under 5.00; on Human recombinant MMP-2, 7.47; on Human recombinant MMP-9, 5.65.

As to `O=C(CCCOc1ccc(S(=O)(=O)C2(C(=O)NO)CCOCC2)cc1)c1cccc2ccccc12` [Example 352], the negative logarithm of the IC50 (pIC50) on Human recombinant MMP-14 was 5.20; on Human recombinant MMP-13 it was 8.70; on Human recombinant MMP-1, under 5.00; on Human recombinant MMP-2, 7.47; at Human recombinant MMP-9 it was 5.44.

For `O=C(CCCOc1ccc(S(=O)(=O)C2(C(=O)NO)CCOCC2)cc1)c1cccc(-c2ccccc2)c1` [Example 353], the pIC50 was under 5.00 on Human recombinant MMP-14; 8.74 on Human recombinant MMP-13; under 5.00 on Human recombinant MMP-1; 7.60 on Human recombinant MMP-2; 5.94 on Human recombinant MMP-9.

As to `CC(C)(C)c1ccc(C(=O)CCCOc2ccc(S(=O)(=O)C3(C(=O)NO)CCOCC3)cc2)cc1` [Example 355], the pIC50 on Human recombinant MMP-14 was 5.44; at Human recombinant MMP-13 it was 8.96; at Human recombinant MMP-1, under 5.00; on Human recombinant MMP-2, 7.76; on Human recombinant MMP-9 it was 5.97.
